Literature values, collected in US8178322B2, “Method for producing an L-amino acid or a nucleic acid” (Ajinomoto Co., Inc., priority 2007, dated 2012).
In brackets after ≈: the same amount, converted by molar mass. Where two headings read alike, the source gives them in different places.

How the values were obtained:
[1] = not given; remark: listed apart in the source

SMILES | Solubility (20° C.) [mg/mL] | Solubility (40° C.) [mg/mL] | Solubility (20° C.) [1] [mg/mL] | Solubility (40° C.) [1] [mg/mL]
N[C@@H](CS)C(=O)O [L-cysteine] | 160 (≈ 1320 mM) |  |  | 
N[C@@H](CSSC[C@H](N)C(=O)O)C(=O)O [L-cystine] | 0.09 (≈ 0.375 mM) |  |  | 
NC(=O)CC[C@H](N)C(=O)O [L-glutamine] | 37.3 (≈ 255 mM) | 66 (≈ 452 mM) |  | 
CC[C@H](C)[C@H](N)C(=O)O [L-isoleucine] |  | 44 (≈ 335 mM) |  | 
CC(C)C[C@H](N)C(=O)O [L-leucine] | 23.8 (≈ 181 mM) | 26 (≈ 198 mM) |  | 
N[C@@H](Cc1ccccc1)C(=O)O [L-phenylalanine] | 27.4 (≈ 166 mM) | 38 (≈ 230 mM) |  | 
N[C@@H](Cc1c[nH]c2ccccc12)C(=O)O [L-tryptophan] | 10.6 (≈ 51.9 mM) | 14 (≈ 68.6 mM) |  | 
CC(C)[C@H](N)C(=O)O [L-valine] | 57.5 (≈ 491 mM) | 65 (≈ 555 mM) |  | 

More lines, now with the values ahead:

Solubility (20° C.) [mg/mL] | Solubility (40° C.) [mg/mL] | Solubility (20° C.) [1] [mg/mL] | Solubility (40° C.) [1] [mg/mL] | SMILES
38 (≈ 245 mM) | 58 (≈ 374 mM) |  |  | N[C@@H](Cc1c[nH]cn1)C(=O)O [L-histidine]
 |  | 3.0 (≈ 11.2 mM) | 8.3 (≈ 31.1 mM) | Nc1ncnc2c1ncn2[C@@H]1O[C@H](CO)[C@@H](O)[C@H]1O [adenosine]
 |  | 0.42 (≈ 1.48 mM) | 1.05 (≈ 3.71 mM) | Nc1nc2c(ncn2[C@@H]2O[C@H](CO)[C@@H](O)[C@H]2O)c(=O)[nH]1 [guanosine]
 |  | 206 (≈ 567 mM) | 260 (≈ 716 mM) | Nc1nc2c(ncn2[C@@H]2O[C@H](COP(=O)(O)O)[C@@H](O)[C@H]2O)c(=O)[nH]1 [guanylic acid, guanosine-5′-monophosphate]
 |  | 44.4 (≈ 166 mM) | 83.4 (≈ 311 mM) | OC[C@H]1O[C@@H](n2cnc3c(O)ncnc32)[C@H](O)[C@@H]1O [inosine]
